Columns and labels:
Format in all cases: functional
[1] = system: Pyricularia oryzae; assay: Fungicidal activity against Magnaporthe oryzae Cav. race 003 assessed as rice blast disease control at 500 ppm treated 24 hr before inoculation by preventive manner
[2] = system: Botrytis cinerea; assay: Fungicidal activity against Botryotinia fuckeliana assessed as cucumber gray mold disease control at 500 ppm treated 24 hr before inoculation by preventive manner
[3] = system: Podosphaera fuliginea; assay: Fungicidal activity against Podosphaera fuliginea assessed as cucumber powdery mildew disease control at 31.3 ppm treated 24 hr before inoculation by preventive manner
[4] = system: Pyricularia oryzae; assay: Fungicidal activity against Magnaporthe oryzae Cav. race 003 assessed as rice blast disease control at 125 ppm treated 24 hr before inoculation by preventive manner
[5] = system: Podosphaera fuliginea; assay: Fungicidal activity against Podosphaera fuliginea assessed as cucumber powdery mildew disease control at 7.8 ppm treated 24 hr before inoculation by preventive manner
[6] = system: Podosphaera fuliginea; assay: Fungicidal activity against Podosphaera fuliginea assessed as cucumber powdery mildew disease control at 500 ppm treated 24 hr before inoculation by preventive manner
[7] = system: Botrytis cinerea; assay: Fungicidal activity against Botryotinia fuckeliana assessed as cucumber gray mold disease control at 7.8 ppm treated 24 hr before inoculation by preventive manner
[8] = system: Podosphaera fuliginea; assay: Fungicidal activity against Podosphaera fuliginea assessed as cucumber powdery mildew disease control at 125 ppm treated 24 hr before inoculation by preventive manner
[9] = system: Podosphaera fuliginea; assay: Fungicidal activity against Podosphaera fuliginea assessed as cucumber powdery mildew control at 0.125 ppm foliar application 24 hr after inoculation by curative manner
[10] = system: Podosphaera fuliginea; assay: Fungicidal activity against Podosphaera fuliginea assessed as cucumber powdery mildew control at 0.5 ppm foliar application 24 hr after inoculation by curative manner
[11] = system: Podosphaera fuliginea; assay: Fungicidal activity against Podosphaera fuliginea assessed as cucumber powdery mildew control at 2 ppm foliar application 24 hr after inoculation by curative manner
[12] = system: Podosphaera fuliginea; assay: Fungicidal activity against Podosphaera fuliginea assessed as cucumber powdery mildew control at 7.8 ppm foliar application 24 hr after inoculation by curative manner
[13] = system: Podosphaera fuliginea; assay: Fungicidal activity against Podosphaera fuliginea assessed as cucumber powdery mildew control at 0.125 ppm foliar application 24 hr before inoculation by preventive manner
[14] = system: Podosphaera fuliginea; assay: Fungicidal activity against Podosphaera fuliginea assessed as cucumber powdery mildew control at 0.5 ppm foliar application 24 hr before inoculation by preventive manner
[15] = system: Podosphaera fuliginea; assay: Fungicidal activity against Podosphaera fuliginea assessed as cucumber powdery mildew control at 2 ppm foliar application 24 hr before inoculation by preventive manner
[16] = system: Podosphaera fuliginea; assay: Fungicidal activity against Podosphaera fuliginea assessed as cucumber powdery mildew control at 7.8 ppm foliar application 24 hr before inoculation by preventive manner
[17] = system: Thanatephorus cucumeris; assay: Fungicidal activity against Thanatephorus cucumeris assessed as rice sheath blight disease control at 2 ppm foliar application for 24 hr after inoculation by curative manner
[18] = system: Thanatephorus cucumeris; assay: Fungicidal activity against Thanatephorus cucumeris assessed as rice sheath blight disease control at 7.8 ppm foliar application for 24 hr after inoculation by curative manner
[19] = system: Thanatephorus cucumeris; assay: Fungicidal activity against Thanatephorus cucumeris assessed as rice sheath blight disease control at 31.3 ppm foliar application for 24 hr after inoculation by curative manner
[20] = system: Thanatephorus cucumeris; assay: Fungicidal activity against Thanatephorus cucumeris assessed as rice sheath blight disease control at 125 ppm foliar application for 24 hr after inoculation by curative manner
[21] = system: Thanatephorus cucumeris; assay: Fungicidal activity against Thanatephorus cucumeris assessed as rice sheath blight disease control at 2 ppm foliar application for 24 hr before inoculation by preventive manner
[22] = system: Thanatephorus cucumeris; assay: Fungicidal activity against Thanatephorus cucumeris assessed as rice sheath blight disease control at 7.8 ppm foliar application for 24 hr before inoculation by preventive manner
[23] = system: Thanatephorus cucumeris; assay: Fungicidal activity against Thanatephorus cucumeris assessed as rice sheath blight disease control at 31.3 ppm foliar application for 24 hr before inoculation by preventive manner
[24] = system: Thanatephorus cucumeris; assay: Fungicidal activity against Thanatephorus cucumeris assessed as rice sheath blight disease control at 125 ppm foliar application for 24 hr before inoculation by preventive manner

## CNC(=O)C(OC)c1cccc(COc2ccc(C)cc2)c1 (stereo unspecified)
[1]
  Activity: 90%
[2]
  Activity: <50%
[3]
  Activity: 90%

## CCc1ccccc1OCc1cccc(C(OC)C(=O)NC)c1 (stereo unspecified)
[4]
  Activity: 90%
[5]
  Activity: 90%
[2]
  Activity: 50%

## CNC(=O)C(OC)c1cccc(COc2ccccc2OC)c1 (stereo unspecified)
[1]
  Activity: <90%
[2]
  Activity: <50%
[6]
  Activity: <90%

## CNC(=O)C(OC)c1cccc(COc2ccc(Cl)cc2Cl)c1 (stereo unspecified)
[5]
  Activity: 90%
[1]
  Activity: <90%
[2]
  Activity: <50%

## CNC(=O)C(OC)c1cccc(COc2cc(Cl)cc(Cl)c2)c1 (stereo unspecified)
[1]
  Activity: <90%
[2]
  Activity: <50%
[3]
  Activity: 90%

## CNC(=O)C(OC)c1cccc(COc2cccc(C)c2C)c1 (stereo unspecified)
[4]
  Activity: 90%
[5]
  Activity: 90%
[7]
  Activity: 50%

## CNC(=O)C(OC)c1cccc(COc2c(C)cccc2C)c1 (stereo unspecified)
[1]
  Activity: <90%
[2]
  Activity: <50%
[6]
  Activity: <90%

## CNC(=O)C(OC)c1cccc(COc2ccc(C)c(C)c2)c1 (stereo unspecified)
[4]
  Activity: 90%
[2]
  Activity: 50%
[3]
  Activity: 90%

## CNC(=O)C(OC)c1cccc(COc2ccc(C)cc2Cl)c1 (stereo unspecified)
[4]
  Activity: 90%
[5]
  Activity: 90%
[2]
  Activity: 50%

## CNC(=O)C(OC)c1cccc(COc2cc(C)ccc2Cl)c1 (stereo unspecified)
[4]
  Activity: 90%
[5]
  Activity: 90%
[7]
  Activity: 50%

## CNC(=O)C(OC)c1cccc(COc2ccc(Cl)cc2C)c1 (stereo unspecified)
[4]
  Activity: 90%
[5]
  Activity: 90%
[7]
  Activity: 50%

## CNC(=O)C(OC)c1cccc(COc2ccc(C)cc2OC)c1 (stereo unspecified)
[1]
  Activity: <90%
[2]
  Activity: 50%
[6]
  Activity: <90%

## CCOC(C(=O)NC)c1cccc(COc2cc(C)ccc2C)c1 (stereo unspecified)
[5]
  Activity: 90%
[1]
  Activity: <90%
[2]
  Activity: <50%

## CCCCOC(C(=O)NC)c1cccc(COc2cc(C)ccc2C)c1 (stereo unspecified)
[1]
  Activity: <90%
[2]
  Activity: <50%
[3]
  Activity: 90%

## CNC(=O)C(OC(C)=O)c1cccc(COc2cc(C)ccc2C)c1 (stereo unspecified)
[1]
  Activity: <90%
[2]
  Activity: <50%
[6]
  Activity: <90%

## CNC(=O)C(OCOC)c1cccc(COc2cc(C)ccc2C)c1 (stereo unspecified)
[1]
  Activity: <90%
[2]
  Activity: <50%
[6]
  Activity: <90%

## COC(C(=O)O)c1cccc(COc2cc(C)ccc2C)c1 (stereo unspecified)
[5]
  Activity: 90%
[1]
  Activity: 90%
[2]
  Activity: <50%

## COC(C(=O)SC)c1cccc(COc2cc(C)ccc2C)c1 (stereo unspecified)
[1]
  Activity: <90%
[2]
  Activity: <50%
[6]
  Activity: <90%

## CCCCNC(=O)C(OC)c1cccc(COc2cc(C)ccc2C)c1 (stereo unspecified)
[1]
  Activity: <90%
[2]
  Activity: <50%
[6]
  Activity: <90%

## COC(C(N)=O)c1cccc(COc2cc(C)ccc2C)c1 (stereo unspecified)
[1]
  Activity: 90%
[2]
  Activity: <50%
[3]
  Activity: 90%

## COC(C(=O)N(C)C)c1cccc(COc2cc(C)ccc2C)c1 (stereo unspecified)
[1]
  Activity: 90%
[2]
  Activity: <50%
[8]
  Activity: 90%

## CNC(=O)C(OC)c1cccc(CSc2cc(C)ccc2C)c1 (stereo unspecified)
[1]
  Activity: <90%
[2]
  Activity: <50%
[6]
  Activity: 90%

## CNC(=O)C(OC)c1cccc(Oc2ccc(Cl)cc2)c1 (stereo unspecified)
[1]
  Activity: <90%
[2]
  Activity: <50%
[6]
  Activity: <90%

## CNC(=O)C(OC)c1cccc(OCc2ccc(Cl)cc2)c1 (stereo unspecified)
[1]
  Activity: <90%
[2]
  Activity: <50%
[6]
  Activity: <90%

## CNC(=O)C(OC)c1cccc(COC(=O)c2ccc(Cl)cc2)c1 (stereo unspecified)
[1]
  Activity: <90%
[2]
  Activity: <50%
[6]
  Activity: <90%

## OC(c1ccc(Cl)cc1)(c1cncnc1)c1ccccc1Cl (stereo unspecified) [FENARIMOL]
[9]
  Activity: 80%
[10]
  Activity: 99%
[11]
  Activity: 99%
[12]
  Activity: 100%
[13]
  Activity: 0%
[14]
  Activity: 80%
[15]
  Activity: 95%
[16]
  Activity: 100%

## CC(C)Oc1cccc(NC(=O)c2ccccc2C(F)(F)F)c1 [FLUTOLANIL]
[17]
  Activity: 40%
[18]
  Activity: 70%
[19]
  Activity: 80%
[20]
  Activity: 80%
[21]
  Activity: 20%
[22]
  Activity: 70%
[23]
  Activity: 80%
[24]
  Activity: 90%
